SMILES strings stand for the structures. Positions of bridges follow the written chain, without caps; N, C: chain ends. Non-standard residues stand in square brackets, D forms with d. Residues, ends and D or L forms follow the SMILES beside them. Phe(4-COOH) = N[C@@H](Cc1ccc(C(=O)O)cc1)C(=O)O; 2Nal = N[C@@H](Cc1ccc2ccccc2c1)C(=O)O; 2Pal = N[C@@H](Cc1ccccn1)C(=O)O; 3Pal = N[C@@H](Cc1cccnc1)C(=O)O

One assay addresses hNav1.5 (Homo sapiens, UniProt Q14524). The experiment in a line: cell-based.
Another assay deals with hNav1.7 (Homo sapiens, UniProt Q15858). Kind of assay: cell-based. As to conditions: Nav1.7 Use IC50.
Chain of hNav1.7 (Q15858 whole entry, looked up): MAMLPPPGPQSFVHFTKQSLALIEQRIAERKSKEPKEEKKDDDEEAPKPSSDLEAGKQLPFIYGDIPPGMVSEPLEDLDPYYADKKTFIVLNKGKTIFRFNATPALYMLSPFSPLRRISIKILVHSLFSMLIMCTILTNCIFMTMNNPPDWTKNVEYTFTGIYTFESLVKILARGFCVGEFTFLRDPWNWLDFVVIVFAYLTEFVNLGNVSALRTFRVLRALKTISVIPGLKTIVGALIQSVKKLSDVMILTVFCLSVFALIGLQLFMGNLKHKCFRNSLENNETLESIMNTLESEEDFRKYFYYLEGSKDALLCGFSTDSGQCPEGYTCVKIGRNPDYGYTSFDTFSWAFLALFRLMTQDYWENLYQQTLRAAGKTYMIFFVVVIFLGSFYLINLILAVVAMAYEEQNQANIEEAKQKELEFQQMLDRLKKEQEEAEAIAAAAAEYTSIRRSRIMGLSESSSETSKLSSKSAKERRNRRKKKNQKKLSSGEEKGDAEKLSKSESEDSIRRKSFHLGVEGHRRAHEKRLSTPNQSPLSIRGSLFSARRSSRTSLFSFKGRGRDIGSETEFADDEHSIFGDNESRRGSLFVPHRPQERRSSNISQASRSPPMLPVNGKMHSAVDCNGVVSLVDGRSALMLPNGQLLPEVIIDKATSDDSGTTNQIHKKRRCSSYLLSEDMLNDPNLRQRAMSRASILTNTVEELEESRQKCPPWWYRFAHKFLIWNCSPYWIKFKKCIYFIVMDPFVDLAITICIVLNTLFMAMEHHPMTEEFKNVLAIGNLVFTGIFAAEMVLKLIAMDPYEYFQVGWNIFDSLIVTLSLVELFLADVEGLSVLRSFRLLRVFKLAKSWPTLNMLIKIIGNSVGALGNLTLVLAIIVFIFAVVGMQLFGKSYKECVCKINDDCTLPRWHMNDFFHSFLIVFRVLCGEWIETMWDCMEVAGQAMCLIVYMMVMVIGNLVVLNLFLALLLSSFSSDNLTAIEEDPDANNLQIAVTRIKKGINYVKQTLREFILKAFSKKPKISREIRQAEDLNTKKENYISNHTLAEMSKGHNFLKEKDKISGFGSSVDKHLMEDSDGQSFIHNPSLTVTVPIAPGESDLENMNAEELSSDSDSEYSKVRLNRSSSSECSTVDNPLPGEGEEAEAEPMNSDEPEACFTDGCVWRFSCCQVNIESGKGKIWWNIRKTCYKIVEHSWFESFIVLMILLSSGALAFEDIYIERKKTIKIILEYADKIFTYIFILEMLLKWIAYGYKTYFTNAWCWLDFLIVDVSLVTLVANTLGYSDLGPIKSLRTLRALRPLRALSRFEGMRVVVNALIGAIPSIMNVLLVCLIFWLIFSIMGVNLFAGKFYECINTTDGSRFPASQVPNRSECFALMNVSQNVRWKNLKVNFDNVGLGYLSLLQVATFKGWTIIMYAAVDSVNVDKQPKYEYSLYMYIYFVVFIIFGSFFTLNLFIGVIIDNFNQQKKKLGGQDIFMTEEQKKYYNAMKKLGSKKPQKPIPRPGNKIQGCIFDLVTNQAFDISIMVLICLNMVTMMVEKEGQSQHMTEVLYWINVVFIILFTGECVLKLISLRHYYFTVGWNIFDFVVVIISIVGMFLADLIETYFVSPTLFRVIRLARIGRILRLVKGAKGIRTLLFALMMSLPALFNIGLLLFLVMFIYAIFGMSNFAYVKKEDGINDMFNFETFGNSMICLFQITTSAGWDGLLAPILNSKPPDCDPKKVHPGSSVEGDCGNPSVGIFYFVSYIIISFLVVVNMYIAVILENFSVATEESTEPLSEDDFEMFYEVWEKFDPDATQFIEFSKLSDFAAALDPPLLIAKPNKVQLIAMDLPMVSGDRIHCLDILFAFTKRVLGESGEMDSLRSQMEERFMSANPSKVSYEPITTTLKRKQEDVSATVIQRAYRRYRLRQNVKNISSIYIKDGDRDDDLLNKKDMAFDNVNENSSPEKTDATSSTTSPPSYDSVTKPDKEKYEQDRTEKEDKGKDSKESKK

Chain of hNav1.5 (Q14524 whole entry, looked up): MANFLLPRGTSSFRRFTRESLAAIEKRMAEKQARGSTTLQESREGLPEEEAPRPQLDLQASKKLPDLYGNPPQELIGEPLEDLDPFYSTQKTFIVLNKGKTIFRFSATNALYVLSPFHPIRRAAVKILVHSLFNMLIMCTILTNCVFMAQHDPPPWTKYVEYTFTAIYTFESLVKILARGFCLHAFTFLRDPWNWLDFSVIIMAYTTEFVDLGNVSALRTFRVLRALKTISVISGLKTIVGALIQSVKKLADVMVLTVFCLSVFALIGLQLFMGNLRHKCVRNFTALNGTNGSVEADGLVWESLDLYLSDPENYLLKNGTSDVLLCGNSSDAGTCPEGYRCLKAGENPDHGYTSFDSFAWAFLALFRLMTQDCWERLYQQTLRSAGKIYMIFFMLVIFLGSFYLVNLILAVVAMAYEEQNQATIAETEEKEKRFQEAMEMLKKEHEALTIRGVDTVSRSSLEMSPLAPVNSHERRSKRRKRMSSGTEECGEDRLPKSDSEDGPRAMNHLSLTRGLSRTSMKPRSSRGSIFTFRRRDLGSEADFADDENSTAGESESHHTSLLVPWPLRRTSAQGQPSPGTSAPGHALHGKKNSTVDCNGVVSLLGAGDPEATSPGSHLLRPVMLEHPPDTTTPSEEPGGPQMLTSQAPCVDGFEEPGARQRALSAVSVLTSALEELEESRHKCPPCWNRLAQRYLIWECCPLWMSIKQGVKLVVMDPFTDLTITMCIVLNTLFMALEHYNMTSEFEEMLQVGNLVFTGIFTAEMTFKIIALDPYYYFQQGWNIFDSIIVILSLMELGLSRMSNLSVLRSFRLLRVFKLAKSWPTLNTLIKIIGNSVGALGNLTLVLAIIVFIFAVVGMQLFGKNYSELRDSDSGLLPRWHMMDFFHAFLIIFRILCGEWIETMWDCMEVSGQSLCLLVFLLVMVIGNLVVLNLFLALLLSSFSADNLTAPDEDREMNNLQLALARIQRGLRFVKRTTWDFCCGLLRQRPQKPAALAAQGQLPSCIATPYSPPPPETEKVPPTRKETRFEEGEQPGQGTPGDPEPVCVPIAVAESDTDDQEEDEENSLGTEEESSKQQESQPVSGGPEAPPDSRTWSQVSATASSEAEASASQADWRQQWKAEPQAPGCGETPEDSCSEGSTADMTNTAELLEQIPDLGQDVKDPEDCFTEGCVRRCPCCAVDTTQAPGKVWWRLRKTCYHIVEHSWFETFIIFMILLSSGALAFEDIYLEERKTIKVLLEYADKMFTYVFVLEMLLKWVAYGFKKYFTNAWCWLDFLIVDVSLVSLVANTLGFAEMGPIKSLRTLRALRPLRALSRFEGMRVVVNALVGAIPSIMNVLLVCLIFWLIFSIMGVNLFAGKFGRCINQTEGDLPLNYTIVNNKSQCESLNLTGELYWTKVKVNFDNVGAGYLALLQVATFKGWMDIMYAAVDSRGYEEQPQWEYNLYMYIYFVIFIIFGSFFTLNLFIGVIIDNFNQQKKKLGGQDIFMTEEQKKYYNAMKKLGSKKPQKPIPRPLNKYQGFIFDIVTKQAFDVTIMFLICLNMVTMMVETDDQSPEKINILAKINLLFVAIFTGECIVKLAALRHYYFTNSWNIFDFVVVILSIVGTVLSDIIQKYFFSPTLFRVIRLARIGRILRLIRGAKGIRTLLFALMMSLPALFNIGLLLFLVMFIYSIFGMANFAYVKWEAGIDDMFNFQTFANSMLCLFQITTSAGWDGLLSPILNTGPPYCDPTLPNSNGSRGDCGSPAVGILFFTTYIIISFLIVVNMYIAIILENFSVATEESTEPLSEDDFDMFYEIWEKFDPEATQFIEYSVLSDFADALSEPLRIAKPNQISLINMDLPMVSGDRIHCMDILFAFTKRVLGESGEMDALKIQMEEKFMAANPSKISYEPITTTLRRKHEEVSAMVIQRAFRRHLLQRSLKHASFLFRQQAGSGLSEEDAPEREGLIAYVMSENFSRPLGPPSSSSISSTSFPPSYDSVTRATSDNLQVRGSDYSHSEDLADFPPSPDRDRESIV

With `CC[C@H](C)[C@@H]1NC(=O)[C@@H]2CSSC[C@@H]3NC(=O)[C@H](C(C)C)NC(=O)[C@H](CC(C)C)NC(=O)[C@H](CC(N)=O)NC(=O)[C@@H]4CCCN4C(=O)[C@H](CCCNC(=N)N)NC(=O)[C@H](CSSC[C@H](NC(=O)[C@@H](N)CC(=O)O)C(=O)N[C@@H](CC(C)C)C(=O)NCC(=O)N[C@@H](Cc4ccccc4)C(=O)N[C@@H](CCSC)C(=O)N[C@@H](CCCNC(=N)N)C(=O)N[C@@H](CCCCN)C(=O)N2)NC(=O)[C@H](CSSC[C@@H](C(=O)N[C@@H](CCCCN)C(=O)N[C@@H](Cc2ccc(O)cc2)C(=O)N[C@H](C(=O)N[C@@H](Cc2ccccc2)C(N)=O)C(C)C)NC(=O)[C@H](Cc2ccc4ccccc4c2)NC(=O)[C@H](CCCCN)NC(=O)[C@H](Cc2c[nH]cn2)NC(=O)[C@H]([C@@H](C)O)NC(=O)[C@H](CCCNC(=N)N)NC(=O)[C@H](CO)NC3=O)NC(=O)[C@H](CCCCN)NC(=O)[C@H](CC(=O)O)NC(=O)[C@H](CC(N)=O)NC(=O)[C@H](CC(=O)O)NC(=O)[C@@H]2CCCN2C1=O` [[2-Nal29]GpTx-1(1-34)] (H-DCLGFMRKCIPDNDKCCRPNLVCSRTHK[2Nal]CKYVF-NH2; disulfide 2-17, 9-23, 16-30), the IC50 (usually the point on the concentration scale where inhibition reaches its midpoint) against hNav1.5 was more than 10000 nM; on hNav1.7, 66 nM.

As to `CC[C@H](C)[C@@H]1NC(=O)[C@@H]2CSSC[C@@H]3NC(=O)[C@H](C(C)C)NC(=O)[C@H](CC(C)C)NC(=O)[C@H](CC(N)=O)NC(=O)[C@@H]4CCCN4C(=O)[C@H](Cc4ccccn4)NC(=O)[C@H](CSSC[C@H](NC(=O)[C@@H](N)CC(=O)O)C(=O)N[C@@H](CC(C)C)C(=O)NCC(=O)N[C@@H](Cc4ccccc4)C(=O)N[C@@H](CCSC)C(=O)N[C@@H](CCCNC(=N)N)C(=O)N[C@@H](CCCCN)C(=O)N2)NC(=O)[C@H](CSSC[C@@H](C(=O)N[C@@H](CCCCN)C(=O)N[C@@H](Cc2ccc(O)cc2)C(=O)N[C@H](C(=O)N[C@@H](Cc2ccccc2)C(N)=O)C(C)C)NC(=O)[C@H](Cc2c[nH]c4ccccc24)NC(=O)[C@H](CCCCN)NC(=O)[C@H](Cc2cnc[nH]2)NC(=O)[C@H]([C@@H](C)O)NC(=O)[C@H](CCCNC(=N)N)NC(=O)[C@H](CO)NC3=O)NC(=O)[C@H](CCCCN)NC(=O)[C@H](CC(=O)O)NC(=O)[C@H](CC(N)=O)NC(=O)[C@H](CC(=O)O)NC(=O)[C@@H]2CCCN2C1=O` [[2PAL18]GpTx-1(1-34)] (H-DCLGFMRKCIPDNDKCC[2Pal]PNLVCSRTHKWCKYVF-NH2; disulfide 2-17, 9-23, 16-30), the IC50 at hNav1.5 came to 13700 nM; on hNav1.7, 3 nM.

Take `CC[C@H](C)[C@@H]1NC(=O)[C@@H]2CSSC[C@@H]3NC(=O)[C@H](Cc4ccccn4)NC(=O)[C@H](CC(C)C)NC(=O)[C@H](CC(N)=O)NC(=O)[C@@H]4CCCN4C(=O)[C@H](CCCNC(=N)N)NC(=O)[C@H](CSSC[C@H](NC(=O)[C@@H](N)CC(=O)O)C(=O)N[C@@H](CC(C)C)C(=O)NCC(=O)N[C@@H](Cc4ccccc4)C(=O)N[C@@H](CCSC)C(=O)N[C@@H](CCCNC(=N)N)C(=O)N[C@@H](CCCCN)C(=O)N2)NC(=O)[C@H](CSSC[C@@H](C(=O)N[C@@H](CCCCN)C(=O)N[C@@H](Cc2ccc(O)cc2)C(=O)N[C@H](C(=O)N[C@@H](Cc2ccccc2)C(N)=O)C(C)C)NC(=O)[C@H](Cc2c[nH]c4ccccc24)NC(=O)[C@H](CCCCN)NC(=O)[C@H](Cc2c[nH]cn2)NC(=O)[C@H]([C@@H](C)O)NC(=O)[C@H](CCCNC(=N)N)NC(=O)[C@H](CO)NC3=O)NC(=O)[C@H](CCCCN)NC(=O)[C@H](CC(=O)O)NC(=O)[C@H](CC(N)=O)NC(=O)[C@H](CC(=O)O)NC(=O)[C@@H]2CCCN2C1=O` [[2PAL22]GpTx-1(1-34)] (H-DCLGFMRKCIPDNDKCCRPNL[2Pal]CSRTHKWCKYVF-NH2; disulfide 2-17, 9-23, 16-30): the IC50 on hNav1.5 is 16000 nM; against hNav1.7, 7 nM.

`CC[C@H](C)[C@@H]1NC(=O)[C@@H]2CSSC[C@@H]3NC(=O)[C@H](C(C)C)NC(=O)[C@H](CC(C)C)NC(=O)[C@H](CC(N)=O)NC(=O)[C@@H]4CCCN4C(=O)[C@H](CCCNC(=N)N)NC(=O)[C@H](CSSC[C@H](NC(=O)[C@@H](N)CC(=O)O)C(=O)N[C@@H](CC(C)C)C(=O)NCC(=O)N[C@@H](Cc4ccccc4)C(=O)N[C@@H](CCSC)C(=O)N[C@@H](CCCNC(=N)N)C(=O)N[C@@H](CCCCN)C(=O)N2)NC(=O)[C@H](CSSC[C@@H](C(=O)N[C@@H](CCCCN)C(=O)N[C@@H](Cc2ccccn2)C(=O)N[C@H](C(=O)N[C@@H](Cc2ccccc2)C(N)=O)C(C)C)NC(=O)[C@H](Cc2c[nH]c4ccccc24)NC(=O)[C@H](CCCCN)NC(=O)[C@H](Cc2c[nH]cn2)NC(=O)[C@H]([C@@H](C)O)NC(=O)[C@H](CCCNC(=N)N)NC(=O)[C@H](CO)NC3=O)NC(=O)[C@H](CCCCN)NC(=O)[C@H](CC(=O)O)NC(=O)[C@H](CC(N)=O)NC(=O)[C@H](CC(=O)O)NC(=O)[C@@H]2CCCN2C1=O` [[2PAL32]GpTx-1(1-34)] (H-DCLGFMRKCIPDNDKCCRPNLVCSRTHKWCK[2Pal]VF-NH2; disulfide 2-17, 9-23, 16-30): the values for the 50% inhibitory concentration (IC50) against hNav1.5 and at hNav1.7 were more than 10000 nM and 35 nM, respectively.

Take `CC[C@H](C)[C@@H]1NC(=O)[C@@H]2CSSC[C@@H]3NC(=O)[C@H](C(C)C)NC(=O)[C@H](CC(C)C)NC(=O)[C@H](CC(N)=O)NC(=O)[C@@H]4CCCN4C(=O)[C@H](CCCNC(=N)N)NC(=O)[C@H](CSSC[C@H](NC(=O)[C@@H](N)CC(=O)O)C(=O)N[C@@H](CC(C)C)C(=O)NCC(=O)N[C@@H](Cc4ccccc4)C(=O)N[C@@H](CCSC)C(=O)N[C@@H](CCCNC(=N)N)C(=O)N[C@@H](CCCCN)C(=O)N2)NC(=O)[C@H](CSSC[C@@H](C(=O)N[C@@H](CCCCN)C(=O)N[C@@H](Cc2ccc(O)cc2)C(=O)N[C@@H](Cc2ccccn2)C(=O)N[C@@H](Cc2ccccc2)C(N)=O)NC(=O)[C@H](Cc2c[nH]c4ccccc24)NC(=O)[C@H](CCCCN)NC(=O)[C@H](Cc2c[nH]cn2)NC(=O)[C@H]([C@@H](C)O)NC(=O)[C@H](CCCNC(=N)N)NC(=O)[C@H](CO)NC3=O)NC(=O)[C@H](CCCCN)NC(=O)[C@H](CC(=O)O)NC(=O)[C@H](CC(N)=O)NC(=O)[C@H](CC(=O)O)NC(=O)[C@@H]2CCCN2C1=O` [[2PAL33]GpTx-1(1-34)] (H-DCLGFMRKCIPDNDKCCRPNLVCSRTHKWCKY[2Pal]F-NH2; disulfide 2-17, 9-23, 16-30): the results for the IC50 against hNav1.5 and at hNav1.7 were 3460 nM and 10 nM, respectively.

Take `CC[C@H](C)[C@@H]1NC(=O)[C@@H]2CSSC[C@@H]3NC(=O)[C@H](C(C)C)NC(=O)[C@H](CC(C)C)NC(=O)[C@H](CC(N)=O)NC(=O)[C@@H]4CCCN4C(=O)[C@H](CCCNC(=N)N)NC(=O)[C@H](CSSC[C@H](NC(=O)[C@@H](N)CC(=O)O)C(=O)N[C@@H](CC(C)C)C(=O)NCC(=O)N[C@@H](Cc4cccnc4)C(=O)N[C@@H](Cc4ccccc4)C(=O)N[C@@H](CCCNC(=N)N)C(=O)N[C@@H](CCCCN)C(=O)N2)NC(=O)[C@H](CSSC[C@@H](C(=O)N[C@@H](CCCCN)C(=O)N[C@@H](Cc2ccc(O)cc2)C(=O)N[C@H](C(=O)N[C@@H](Cc2ccccc2)C(N)=O)C(C)C)NC(=O)[C@H](Cc2c[nH]c4ccccc24)NC(=O)[C@H](CCCCN)NC(=O)[C@H](Cc2c[nH]cn2)NC(=O)[C@H]([C@@H](C)O)NC(=O)[C@H](CCCNC(=N)N)NC(=O)[C@H](CO)NC3=O)NC(=O)[C@H](CCCCN)NC(=O)[C@H](CC(=O)O)NC(=O)[C@H](CC(N)=O)NC(=O)[C@H](CC(=O)O)NC(=O)[C@@H]2CCCN2C1=O` [[3Pal5;Phe6]GpTx-1(1-34)] (H-DCLG[3Pal]FRKCIPDNDKCCRPNLVCSRTHKWCKYVF-NH2; disulfide 2-17, 9-23, 16-30): the IC50 against hNav1.5 is more than 10000 nM; against hNav1.7, 63 nM.

In the case of `CC[C@H](C)[C@@H]1NC(=O)[C@@H]2CSSC[C@@H]3NC(=O)[C@H](C(C)C)NC(=O)[C@H](CC(C)C)NC(=O)[C@H](CC(N)=O)NC(=O)[C@@H]4CCCN4C(=O)[C@H](CCCNC(=N)N)NC(=O)[C@H](CSSC[C@H](NC(=O)[C@@H](N)CC(=O)O)C(=O)N[C@@H](CC(C)C)C(=O)NCC(=O)N[C@@H](Cc4ccccc4)C(=O)N[C@@H](CCSC)C(=O)N[C@@H](CCCNC(=N)N)C(=O)N[C@@H](CCCCN)C(=O)N2)NC(=O)[C@H](CSSC[C@@H](C(=O)N[C@@H](CCCCN)C(=O)N[C@@H](Cc2ccc(O)cc2)C(=O)N[C@H](C(=O)N[C@@H](Cc2ccccc2)C(N)=O)C(C)C)NC(=O)[C@H](Cc2c[nH]c4ccccc24)NC(=O)[C@H](CCCCN)NC(=O)[C@H](Cc2c[nH]cn2)NC(=O)[C@H](Cc2ccc(C(=O)O)cc2)NC(=O)[C@H](CCCNC(=N)N)NC(=O)[C@H](CO)NC3=O)NC(=O)[C@H](CCCCN)NC(=O)[C@H](CC(=O)O)NC(=O)[C@H](CC(N)=O)NC(=O)[C@H](CC(=O)O)NC(=O)[C@@H]2CCCN2C1=O` [[4CO2-F26]GpTx-1(1-34)] (H-DCLGFMRKCIPDNDKCCRPNLVCSR[Phe(4-COOH)]HKWCKYVF-NH2; disulfide 2-17, 9-23, 16-30), the IC50 against hNav1.5 was more than 10000 nM; on hNav1.7, 65 nM.

Regarding `CC[C@H](C)[C@@H]1NC(=O)[C@@H]2CSSC[C@@H]3NC(=O)[C@H](C(C)C)NC(=O)[C@H](CC(C)C)NC(=O)[C@H](CC(N)=O)NC(=O)[C@@H]4CCCN4C(=O)[C@H](CCCNC(=N)N)NC(=O)[C@H](CSSC[C@H](NC(=O)[C@@H](N)CC(=O)O)C(=O)N[C@@H](CC(C)C)C(=O)NCC(=O)N[C@@H](Cc4ccccc4)C(=O)N[C@@H](CCSC)C(=O)N[C@@H](CCCNC(=N)N)C(=O)N[C@@H](CCCCN)C(=O)N2)NC(=O)[C@H](CSSC[C@@H](C(=O)N[C@@H](CCCCN)C(=O)N[C@@H](Cc2ccc(O)cc2)C(=O)N[C@@H](Cc2ccc(C(=O)O)cc2)C(=O)N[C@@H](Cc2ccccc2)C(N)=O)NC(=O)[C@H](Cc2c[nH]c4ccccc24)NC(=O)[C@H](CCCCN)NC(=O)[C@H](Cc2c[nH]cn2)NC(=O)[C@H]([C@@H](C)O)NC(=O)[C@H](CCCNC(=N)N)NC(=O)[C@H](CO)NC3=O)NC(=O)[C@H](CCCCN)NC(=O)[C@H](CC(=O)O)NC(=O)[C@H](CC(N)=O)NC(=O)[C@H](CC(=O)O)NC(=O)[C@@H]2CCCN2C1=O` [[4CO2-F33]GpTx-1(1-34)] (H-DCLGFMRKCIPDNDKCCRPNLVCSRTHKWCKY[Phe(4-COOH)]F-NH2; disulfide 2-17, 9-23, 16-30), the figures for the half-inhibitory concentration (IC50) against hNav1.5 and against hNav1.7 were more than 10000 nM and 3 nM, respectively.

The values are drawn from patent US9340590B2 (priority 2011, dated 2016).
